Columns and labels:
progestin receptor = assay: Receptor binding: relative binding activity (RBA) for progestin receptor, competition with 3H-R5020 in T-47D cells; details: T-47D human breast carcinoma cells; ratio of concentrations causing 50% displacement of 3H-R5020; percentage of reference standard R-5020
Procedure: Receptor Binding. The affinity of the compounds for hormone receptors was determined by standard procedures similar to those that have been described, inter alia, by Wagner et al., Proc. Natl. Acad. Sci., 93, 8739-8744 (1996) for COS-1 cells. The human breast carcinoma (T-47D) cell line was used to assess RBA for progestin receptor. The cell line used was obtained from ATCC (American Type Culture Collection) and stored frozen at -135° C. until a week before the assays were conducted. The cells were thawed and cultured to achieve the desired cell number (5 to 7 days on average). […] After incubation overnight, medium was removed, the cells were washed and solubilized and radioactivity was measured by liquid scintillation spectromctry. Nonspecific binding was determined by incubation with an excess of unlabeled R5020 and subtracted from total binding to calculate specific binding. […]
The percentage of specifically bound ^3 H-R5020 for each concentration tested was calculated and binding curves were generated by plotting the percentage of specifically bound ^3 H-R-5020 versus the concentration of the competitor. The relative binding activity (RBA) of the test compounds, relative to the reference standard (R5020) as well as the internal standard, was determined from the ratio of concentrations causing 50% displacement for each unknown and standard, and expressed as a percentage value. […]

[1] = system: estrogen-primed, progesterone-stimulated immature female rabbits; assay: In vivo antiprogestational activity, uterine endometrial effects scored according to McPhail; set-up: species or system rabbit; details: oral
Procedure: In vivo Test. Antiprogestational activity was determined in vivo by dose-response studies in estrogen-primed, progesterone-stimulated immature female rabbits and results were scored according to McPhail (McPhail, J. Physiol., 83: 146 (1934)). These are standard procedures well-known to those skilled in the art. For determining antiprogestational (antagonist) activity, the test compound was given orally together with subcutaneous administration of progesterone. It was tested orally at 0.5, 1 and 2 mg total dose in estrogenprimed immature female rabbits that were simultaneously given subcutaneous progesterone. The rabbits, weighing about 1.5 kg, were primed with estrogen one a day for 6 days and then treated once a day for 5 days with 0.8 mg total dose of progesterone--i.e.160 μg/day--while at the same time giving the test compound orally once a day in a vehicle of 10% ethanol/sesame oil (0.5 mL volume). Necropsy was performed one day after the last dose. Uterine endometrial effects were scored according to McPhail and potency was evaluated by statistical comparison with the standard compound
17α-acetoxy-11β-[4-(N,N-dimethylamino)phenyl]-19-norpregna-4,9-diene-3,20-dione.

[2] = from C. E. Cook et al, Human Reproduction, 9, Supplement 1, 32-39, June 1994; cited from earlier work

| SMILES | RBA (relative binding activity) relative to R-5020 (progestin receptor) [%] | antiprogestational potency relative to the standard compound ([1]; once a day for 5 days with subcutaneous progesterone, McPhail score, standard = 17α-acetoxy-11β-[4-(N,N-dimethylamino)phenyl]-19-norpregna-4,9-diene-3,20-dione) [fold] | antiprogestational potency relative to mifepristone ([1]; worked out from 5-fold versus standard and standard 3-fold versus mifepristone) [fold] | antiprogestational activity (in words) ([1]; estrogen-primed, progesterone-stimulated immature female rabbits) | antiprogestational potency relative to mifepristone [2] |
| --- | --- | --- | --- | --- | --- |
| CC#C[C@]1(C(C)=O)CC[C@H]2[C@@H]3CCC4=CC(=O)CCC4=C3[C@@H](c3ccc(N(C)C)cc3)C[C@@]21C [A-1, 11β-[4-(N,N-Dimethylamino)phenyl]-17α-(1-propynyl)-19-norpregna-4,9-diene-3,20-dione] | 313 | 5 | ≤ 15 | – | – |
| CC#C[C@]1(C(C)=O)CC[C@H]2[C@@H]3CCC4=CC(=O)CCC4=C3[C@@H](c3ccc(C(C)=O)cc3)C[C@@]21C [A-16, 11β-(4-Acetylphenyl)-17α-(1-propynyl)-19-norpregna-4,9-diene-3,20-dione] | 439 | – | – | had antiprogestational activity | – |
| CC(=O)O[C@]1(C(C)=O)CC[C@H]2[C@@H]3CCC4=CC(=O)CCC4=C3[C@@H](c3ccc(N(C)C)cc3)C[C@@]21C [standard compound, 17α-acetoxy-11β-[4-(N,N-dimethylamino)phenyl]-19-norpregna-4,9-diene-3,20-dione] | – | – | – | – | approximately 3 fold |
